The record followed here is article PMC3392265 (PLoS ONE, 2012).

This test addresses T1, GenK (Corynebacterium glutamicum, UniProt Q8NLB7).
T1 construct: full-length, native gene in intact C. glutamicum RES167 cells; mutants expressed from pXMJ19 in RES167 delta-genK; untagged as far as told; 12 predicted transmembrane helices
Put plainly: inhibition of […]-gentisate uptake in RES167 cells. The test is classed as cell-based.

Structures are written as SMILES.

T1 sequence (Q8NLB7 whole entry): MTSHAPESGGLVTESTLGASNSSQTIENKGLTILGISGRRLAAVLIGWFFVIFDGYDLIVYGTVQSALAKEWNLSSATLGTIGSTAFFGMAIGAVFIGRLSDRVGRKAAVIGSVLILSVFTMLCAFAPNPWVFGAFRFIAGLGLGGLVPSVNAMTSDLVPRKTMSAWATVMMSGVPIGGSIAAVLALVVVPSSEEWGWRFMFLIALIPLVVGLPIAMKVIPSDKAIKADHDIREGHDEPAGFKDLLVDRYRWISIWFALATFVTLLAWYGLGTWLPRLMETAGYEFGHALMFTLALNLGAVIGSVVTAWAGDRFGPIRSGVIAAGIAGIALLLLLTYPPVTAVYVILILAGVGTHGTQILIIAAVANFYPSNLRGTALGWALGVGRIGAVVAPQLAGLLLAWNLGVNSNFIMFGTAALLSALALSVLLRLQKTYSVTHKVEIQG

Consider `O=C(O)c1cccc(O)c1` [3-hydroxybenzoate], for which the inhibition at 800 µM was found to be 94%.

`O=C(O)c1ccccc1` [benzoate] registered an inhibition at 800 µM of 40 to 60%.

Regarding `Oc1ccccc1O` [catechol], the inhibition at 800 µM was 40 to 60%.

As for `O=C(O)c1ccc(O)c(O)c1` [protocatechuate], the inhibition at 800 µM lay in the range of 40 to 60%.

Usually inhibition stands for the relative decrease from the control value, in per cent. A lower inhibition goes with a response near the control.
